Patent US20200093768A1, “METHOD FOR TREATING DIABETES” (Huanggang Normal University, priority 2018, published 2020)
Marks after values point to notes of the source that are not given here.

Columns and labels:
[1] = system: Zucker diabetic fatty (ZDF) rats; assay: Anti-inflammatory cytokines (IL-4, IL-10, IL-13) by ELISA; assay type: in vivo, rat; conditions: for IL-10 plasma levels: versus ZDF controls (FIG. 5B)
Description: On study day 30, blood was collected at CRL.
The expression of inflammatory genes in blood and epididymal adipose tissue was next analyzed. A panel of three anti-inflammatory cytokines in whole blood was quantified by ELISA analysis as a measure for systemic inflammation (FIG. 5). IL-4, IL-10 and IL-13 are involved in the reduction of the inflammatory response through inhibition of NFκB signaling and cytokine release from macrophages.

[2] = system: Zucker diabetic fatty (ZDF) rats; assay: Fasted and fed blood glucose in ZDF rats; conditions: for Fasted blood glucose levels: 5 hrs fasted, versus ZDF vehicle control (FIG. 1A)
[3] = system: Zucker diabetic fatty (ZDF) rats; assay: Clinical chemistry analysis: insulin, adiponectin, lipid parameters; assay type: in vivo, rat
Method: Plasma analysis of insulin, adiponectin, cytokines and a full clinical chemistry panel with lipid parameters was performed at CRL using commercially available ELISA and colorimetric kits.

[4] = system: Zucker diabetic fatty (ZDF) rats; assay: Oral glucose tolerance test (OGTT) on study day 29; conditions: day 29, overnight fasted, glucose 2 g/kg, versus ZDF vehicle control, metformin from 15 min (p<0.01), ibuprofen at 15 min (p<0.01) and 30 min (p<0.05)
[5] = Body weight, food intake and BMI of ZDF rats treated once daily for 30 days; assay type: in vivo, rat; design: Food Intake / BMI: unit not given here; conditions: for Change in body weight versus ZDF control (in words): ibuprofen between day 8 and 26; for BMI / Body Weight / Food Intake: oral gavage once daily (metformin 250 mg/kg, ibuprofen 100 mg/kg); for BMI / Food Intake: n=8; for Body Weight: n=8, in g (unit assumed); for Food Intake: recorded weekly
hyperglycemic adults = conditions: clinical pilot study, low dosage of ibuprofen; cited from earlier work
[6] = system: Zucker diabetic fatty (ZDF) rats; assay: HbA1c analysis in whole blood; assay type: in vivo, rat; conditions: after 30 days of treatment, versus ZDF controls (FIG. 3A)
Method: On study day 30, blood was collected at CRL. […] Glycated hemoglobin (HbA1c) levels in venous whole blood were determined at CRL using the HbA1c Now test kit (Bayer, Whippany, N.J.). HbA1c was measured in treatment groups by immunoassay with anti-HbA1c using tail nick whole blood.

[7] = system: inflammatory genes (COX-2, ICAM-1, IL-1β, IL-6, TNF-α) in whole blood; assay: TaqMan qPCR of inflammatory genes in whole blood; assay type: in vivo, rat; conditions: ZDF rats, normalized to GAPDH, versus ZDF controls (FIG. 6A)
Method: On study day 30, blood was collected at CRL. HbA1c was measured at 8 hrs on a drop of tail whole blood and then animals were fasted. At 11 hrs, animals were dosed per normal and euthanized at 13 hrs by CO2 asphyxiation. Blood was withdrawn by cardiac puncture and 1 mL of whole blood placed into cryo vials for RNA extraction. Remaining blood was centrifuged (at 2200×g for 10 minutes at 22° C.) and serum (500 uL) pipetted into 96 well plates on dry ice for analysis of the following: insulin, adiponectin, clinical chemistry panel with lipid parameters, and the inflammatory panel. Liver, epididymal fat, kidney, heart and spleen were collected and a representative piece was snap frozen. 100 mg of tissue was transferred into 1.5 mL cold RNA later tubes and stored overnight at 4° C. before being moved to −20° C. […]
In the next set of experiments, the expression of a subset of inflammatory genes were quantified in whole blood (FIG. 6A) and epididymal fat tissue (FIG. 6B): cyclooxygenase-2 (COX-2), intracellular adhesion molecule-1 (ICAM-1), interleukin-1β (IL-1β), interleukin-6 (IL-6) and tumor necrosis factor-α (TNF-α) by TaqMan qPCR analysis. […]

[8] = after 30 days, versus ZDF controls (FIG. 4D-F)
[9] = Day 29 (after overnight fasting), mean

| Structure (SMILES) | IL-10 plasma levels [1] | Fasted blood glucose levels [2] | Fasting cholesterol [3, 8] | HDL [3, 8] | Blood glucose in OGTT [4] | Change in food intake versus ZDF control (in words) ([5]; chronic treatment) | Change in body weight versus ZDF control (in words) ([5]; chronic treatment) | BMI ([5]; Day 1, mean) | Body Weight ([5]; Day 1, mean) | Body Weight ([5]; Day 4, mean) | BMI ([5]; Day 8, mean) | Body Weight ([5]; Day 8, mean) | Body Weight ([5]; Day 11, mean) | BMI ([5]; Day 15, mean) | Body Weight ([5]; Day 15, mean) | Body Weight ([5]; Day 19, mean) | BMI ([5]; Day 22, mean) | Body Weight ([5]; Day 22, mean) | Body Weight ([5]; Day 26, mean) | Body Weight [5, 9] | also measured |
| --- | --- | --- | --- | --- | --- | --- | --- | --- | --- | --- | --- | --- | --- | --- | --- | --- | --- | --- | --- | --- | --- |
| CC(C)Cc1ccc(C(C)C(=O)O)cc1 (stereo not drawn) [ibuprofen, 2-(4-Isobutylphenyl)propanoic acid] | No significant changes | did reduce fasting blood glucose levels but this was not significant | strong decline | strong decline | significant decrease in blood glucose | lower food intake | decline in body weight | 2.67 | 386.5 | 370.8 | 2.51* | 376.4** | 379.4* | 2.44 | 377.9 | 376.3* | 2.47 | 385.8 | 380.6* | 359.0 | IL-4 level ([1]; versus ZDF controls (FIG. 5A)): significantly increased; IL-13 levels ([1]; versus ZDF controls (FIG. 5C)): increased; BMI ([5]; Day 29, mean): 2.28; Food Intake ([5]; Day 8, mean): 225.4**; Food Intake ([5]; Day 15, mean): 258.8*; Food Intake ([5]; Day 22, mean): 233.5*; Food Intake ([5]; Day 28, mean): 239.3*; Glucose and insulin in hyperglycemic adults (hyperglycemic adults): did not reveal major differences; Glycated hemoglobin (HbA1c) [6]: attenuated the glycation of hemoglobin |
| CN(C)C(=N)NC(=N)N [metformin, 1,1-dimethylbiguanide] | No significant changes | significant decrease | No significant differences | No significant differences | significant decline in blood glucose | did not cause any significant changes | did not cause any significant changes | 2.60 | 376.6 | 377.8 | 2.57 | 388.5 | 396.1 | 2.47 | 390.9 | 400.8 | 2.52 | 399.9 | 405.6 | 378.9 | ICAM-1 gene expression [7]: no differences; Fed glucose levels ([2]; fed, versus ZDF vehicle control (FIG. 1B)): significant higher levels on day 22 and 28; LDL [3, 8]: No significant differences; Plasma insulin levels ([3]; day 30 (FIG. 3B)): 1.54 ng/mL; Change in BMI versus ZDF control (in words) ([5]; chronic treatment): did not cause any significant changes; BMI ([5]; Day 29, mean): 2.39; Food Intake ([5]; Day 8, mean): 255.1; Food Intake ([5]; Day 15, mean): 309.9; Food Intake ([5]; Day 22, mean): 299.1; Food Intake ([5]; Day 28, mean): 278.8; Glycated hemoglobin (HbA1c) [6]: did not significantly affect |
